How the values were obtained:
[1] = target: 5-hydroxytryptamine receptor 6 (Homo sapiens, UniProt P50406); assay type: cell membranes, HeLa, Membrane; note: in other assays of this panel Not Active means under 50% inhibition at 10 µM
Vasopressin V1a receptor = Vasopressin V1a receptor (Homo sapiens, UniProt P37288); assay type: cell membranes, Membrane; settings: hek293; note: in other assays of this panel Not Active means under 50% inhibition at 10 µM
[2] = target: T1, C-C chemokine receptor type 4 (Homo sapiens, UniProt P51679); assay type: cell membranes, Chem-1, Membrane; settings: chem-1; note: in other assays of this panel Not Active means under 50% inhibition at 10 µM
T1 sequence (P51679 whole entry): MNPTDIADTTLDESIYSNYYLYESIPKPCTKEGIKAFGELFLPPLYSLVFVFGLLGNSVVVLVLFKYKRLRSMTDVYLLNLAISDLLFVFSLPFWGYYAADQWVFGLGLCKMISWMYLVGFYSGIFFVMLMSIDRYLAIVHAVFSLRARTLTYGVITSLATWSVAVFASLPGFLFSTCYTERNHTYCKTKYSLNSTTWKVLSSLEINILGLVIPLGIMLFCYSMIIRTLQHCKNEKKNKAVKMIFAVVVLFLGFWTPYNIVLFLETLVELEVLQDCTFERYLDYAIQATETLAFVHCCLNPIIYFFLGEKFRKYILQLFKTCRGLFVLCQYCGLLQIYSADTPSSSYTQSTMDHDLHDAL

Nitric oxide synthase 1 = Nitric oxide synthase 1 (Rattus norvegicus, UniProt P29476); assay type: tissue-based, Cerebellum; note: in other assays of this panel Not Active means under 50% inhibition at 10 µM
[3] = target: Matrix metalloproteinase-9 (Homo sapiens, UniProt P14780); assay type: cell-based
[4] = target: Receptor tyrosine-protein kinase erbB-2 (Homo sapiens, UniProt P04626); assay type: cell-based; settings: insect cells
[5] = target: T2, Receptor-type tyrosine-protein phosphatase C (Homo sapiens, UniProt P08575); design: species or system Escherichia coli
T2 sequence (P08575 whole entry): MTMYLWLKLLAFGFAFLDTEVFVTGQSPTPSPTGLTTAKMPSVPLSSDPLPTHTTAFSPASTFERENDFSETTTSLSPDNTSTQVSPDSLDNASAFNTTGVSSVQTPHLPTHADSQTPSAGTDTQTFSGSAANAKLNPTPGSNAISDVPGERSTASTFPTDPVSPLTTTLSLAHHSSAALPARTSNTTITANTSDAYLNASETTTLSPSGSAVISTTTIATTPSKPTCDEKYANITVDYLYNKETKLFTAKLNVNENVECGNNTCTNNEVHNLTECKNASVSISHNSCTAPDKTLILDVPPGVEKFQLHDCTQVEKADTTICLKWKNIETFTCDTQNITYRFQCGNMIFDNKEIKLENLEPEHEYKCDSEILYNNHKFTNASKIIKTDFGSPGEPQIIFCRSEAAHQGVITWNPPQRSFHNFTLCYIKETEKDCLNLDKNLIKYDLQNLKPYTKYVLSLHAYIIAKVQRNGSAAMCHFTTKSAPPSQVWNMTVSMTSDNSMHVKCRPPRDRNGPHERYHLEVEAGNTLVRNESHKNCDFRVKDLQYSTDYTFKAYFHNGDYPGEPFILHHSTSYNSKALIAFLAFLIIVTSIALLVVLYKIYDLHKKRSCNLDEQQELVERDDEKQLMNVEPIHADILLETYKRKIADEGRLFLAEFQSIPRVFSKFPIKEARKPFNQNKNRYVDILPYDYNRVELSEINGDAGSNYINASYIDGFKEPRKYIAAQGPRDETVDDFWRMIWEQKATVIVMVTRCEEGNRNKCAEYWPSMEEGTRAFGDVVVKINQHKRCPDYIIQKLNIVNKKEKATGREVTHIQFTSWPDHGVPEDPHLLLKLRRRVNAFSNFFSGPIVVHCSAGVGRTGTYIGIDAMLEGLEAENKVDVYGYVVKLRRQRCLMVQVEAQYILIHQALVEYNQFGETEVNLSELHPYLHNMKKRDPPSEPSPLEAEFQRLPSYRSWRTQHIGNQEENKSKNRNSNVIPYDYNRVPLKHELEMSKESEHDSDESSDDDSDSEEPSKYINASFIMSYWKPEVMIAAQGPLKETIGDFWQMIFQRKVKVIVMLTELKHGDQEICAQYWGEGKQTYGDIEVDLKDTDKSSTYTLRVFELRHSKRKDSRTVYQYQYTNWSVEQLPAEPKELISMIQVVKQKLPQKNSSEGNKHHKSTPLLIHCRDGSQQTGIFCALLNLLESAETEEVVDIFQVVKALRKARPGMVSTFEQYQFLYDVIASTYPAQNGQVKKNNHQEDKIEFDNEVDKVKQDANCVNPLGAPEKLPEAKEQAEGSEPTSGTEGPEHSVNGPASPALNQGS

Adenosine receptor A2a = Adenosine receptor A2a (Homo sapiens, UniProt P29274); assay: DRUGMATRIX: Adenosine A2A radioligand binding (ligand: […]); assay type: cell membranes, HEK293, Membrane; settings: Not Active = under 50% inhibition at 10 µM
Sequence of Adenosine receptor A2a (P29274 whole entry): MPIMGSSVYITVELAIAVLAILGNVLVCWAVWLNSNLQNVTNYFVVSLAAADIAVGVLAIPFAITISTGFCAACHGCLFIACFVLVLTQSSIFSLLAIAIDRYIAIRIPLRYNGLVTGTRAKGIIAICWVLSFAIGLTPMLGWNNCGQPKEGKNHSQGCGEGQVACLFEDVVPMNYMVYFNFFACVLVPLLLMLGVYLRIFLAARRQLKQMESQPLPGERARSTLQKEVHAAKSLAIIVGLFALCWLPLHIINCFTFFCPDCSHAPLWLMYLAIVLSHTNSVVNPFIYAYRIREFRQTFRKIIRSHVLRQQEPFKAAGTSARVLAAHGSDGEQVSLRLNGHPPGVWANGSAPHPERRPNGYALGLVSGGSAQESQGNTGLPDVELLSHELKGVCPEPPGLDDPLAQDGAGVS

Sequence of Matrix metalloproteinase-9 (P14780 whole entry): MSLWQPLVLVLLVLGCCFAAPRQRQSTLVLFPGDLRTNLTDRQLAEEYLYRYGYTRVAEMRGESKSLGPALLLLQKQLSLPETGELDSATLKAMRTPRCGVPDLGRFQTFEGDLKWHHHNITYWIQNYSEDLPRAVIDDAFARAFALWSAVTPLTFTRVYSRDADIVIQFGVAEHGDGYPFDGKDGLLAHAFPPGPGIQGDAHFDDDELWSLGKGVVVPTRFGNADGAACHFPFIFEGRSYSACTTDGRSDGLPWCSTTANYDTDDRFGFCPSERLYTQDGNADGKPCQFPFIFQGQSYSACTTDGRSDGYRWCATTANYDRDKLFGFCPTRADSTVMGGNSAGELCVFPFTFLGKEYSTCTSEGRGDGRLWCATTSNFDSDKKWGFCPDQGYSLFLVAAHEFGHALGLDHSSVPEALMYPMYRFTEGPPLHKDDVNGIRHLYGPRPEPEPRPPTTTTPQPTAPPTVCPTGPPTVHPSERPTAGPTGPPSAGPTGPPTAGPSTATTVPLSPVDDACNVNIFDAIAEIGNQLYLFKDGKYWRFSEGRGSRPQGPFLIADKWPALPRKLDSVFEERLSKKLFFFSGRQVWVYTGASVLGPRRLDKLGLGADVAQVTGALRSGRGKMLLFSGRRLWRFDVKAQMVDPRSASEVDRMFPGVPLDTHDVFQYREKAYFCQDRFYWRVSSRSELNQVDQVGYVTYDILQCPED
Sequence of Nitric oxide synthase 1 (P29476 whole entry): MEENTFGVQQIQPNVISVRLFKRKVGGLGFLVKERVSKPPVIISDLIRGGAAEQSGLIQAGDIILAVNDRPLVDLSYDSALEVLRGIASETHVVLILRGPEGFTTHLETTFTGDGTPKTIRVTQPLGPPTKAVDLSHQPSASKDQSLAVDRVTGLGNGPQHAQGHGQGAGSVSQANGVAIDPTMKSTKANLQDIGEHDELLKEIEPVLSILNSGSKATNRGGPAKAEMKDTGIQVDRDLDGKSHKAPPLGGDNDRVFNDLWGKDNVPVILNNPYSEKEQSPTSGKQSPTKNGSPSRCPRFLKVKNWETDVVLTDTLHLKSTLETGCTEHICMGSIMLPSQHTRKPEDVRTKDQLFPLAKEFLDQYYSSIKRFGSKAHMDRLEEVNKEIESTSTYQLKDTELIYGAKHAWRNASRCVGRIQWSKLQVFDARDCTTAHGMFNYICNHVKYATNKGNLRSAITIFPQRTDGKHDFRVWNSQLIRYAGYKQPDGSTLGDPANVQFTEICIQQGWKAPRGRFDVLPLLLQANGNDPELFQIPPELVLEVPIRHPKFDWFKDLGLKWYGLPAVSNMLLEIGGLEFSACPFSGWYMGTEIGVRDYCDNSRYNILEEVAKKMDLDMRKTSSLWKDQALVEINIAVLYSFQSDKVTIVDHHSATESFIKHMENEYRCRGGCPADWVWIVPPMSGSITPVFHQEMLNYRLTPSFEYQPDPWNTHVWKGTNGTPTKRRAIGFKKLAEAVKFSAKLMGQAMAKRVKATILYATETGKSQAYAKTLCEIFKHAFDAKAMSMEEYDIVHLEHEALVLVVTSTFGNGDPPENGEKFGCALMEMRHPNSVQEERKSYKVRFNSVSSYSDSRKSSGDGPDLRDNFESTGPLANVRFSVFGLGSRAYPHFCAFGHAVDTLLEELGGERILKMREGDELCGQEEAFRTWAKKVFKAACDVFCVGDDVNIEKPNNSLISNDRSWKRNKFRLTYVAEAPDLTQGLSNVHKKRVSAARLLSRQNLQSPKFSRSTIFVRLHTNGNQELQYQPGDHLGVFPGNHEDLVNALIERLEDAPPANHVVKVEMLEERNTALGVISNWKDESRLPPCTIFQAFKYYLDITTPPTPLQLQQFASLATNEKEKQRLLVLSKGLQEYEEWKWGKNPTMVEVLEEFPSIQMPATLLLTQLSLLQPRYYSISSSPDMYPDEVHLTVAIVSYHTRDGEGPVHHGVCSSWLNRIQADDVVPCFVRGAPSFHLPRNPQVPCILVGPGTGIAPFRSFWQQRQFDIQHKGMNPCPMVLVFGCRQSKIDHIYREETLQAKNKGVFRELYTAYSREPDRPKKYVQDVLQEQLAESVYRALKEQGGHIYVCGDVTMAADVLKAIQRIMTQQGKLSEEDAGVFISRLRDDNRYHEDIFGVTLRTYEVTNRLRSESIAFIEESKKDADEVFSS
Sequence of Vasopressin V1a receptor (P37288 whole entry): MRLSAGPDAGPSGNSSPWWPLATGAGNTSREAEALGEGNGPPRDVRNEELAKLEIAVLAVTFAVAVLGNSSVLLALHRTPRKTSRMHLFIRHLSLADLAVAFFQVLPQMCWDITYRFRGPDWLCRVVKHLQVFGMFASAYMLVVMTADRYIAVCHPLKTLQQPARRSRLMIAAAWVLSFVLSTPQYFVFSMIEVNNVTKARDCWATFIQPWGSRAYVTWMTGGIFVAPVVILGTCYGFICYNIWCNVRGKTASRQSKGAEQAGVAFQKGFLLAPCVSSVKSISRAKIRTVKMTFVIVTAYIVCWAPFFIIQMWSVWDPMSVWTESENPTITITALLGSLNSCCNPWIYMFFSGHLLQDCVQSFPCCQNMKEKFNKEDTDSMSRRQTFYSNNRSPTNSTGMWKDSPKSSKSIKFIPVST
Sequence of 5-hydroxytryptamine receptor 6 (P50406 whole entry): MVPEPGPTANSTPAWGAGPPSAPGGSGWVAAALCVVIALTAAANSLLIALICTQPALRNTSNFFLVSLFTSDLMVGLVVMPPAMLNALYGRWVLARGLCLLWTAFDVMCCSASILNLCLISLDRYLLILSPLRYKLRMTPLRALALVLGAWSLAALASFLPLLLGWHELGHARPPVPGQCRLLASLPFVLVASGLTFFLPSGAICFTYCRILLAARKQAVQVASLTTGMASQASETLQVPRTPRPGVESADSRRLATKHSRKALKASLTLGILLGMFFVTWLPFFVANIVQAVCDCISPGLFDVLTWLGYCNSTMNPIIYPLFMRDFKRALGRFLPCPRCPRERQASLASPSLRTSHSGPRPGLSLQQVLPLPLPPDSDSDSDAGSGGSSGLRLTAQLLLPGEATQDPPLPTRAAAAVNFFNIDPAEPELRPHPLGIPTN

Compound | IC50 ([1]; hela) | IC50 (Vasopressin V1a receptor) | IC50 [2] | IC50 (Nitric oxide synthase 1) | IC50 [3] | IC50 [4] | IC50 [5] | IC50 (Adenosine receptor A2a; hek293) | IC50 (Adenosine receptor A2a; read-out: IC50) [µM] | Ki (Adenosine receptor A2a; read-out: Ki) [µM] | Ki ([1]; hela) | Ki (Vasopressin V1a receptor) | Ki [2] | Ki (Nitric oxide synthase 1) | Ki [3] | Ki [4] | Ki [5] | Ki (Adenosine receptor A2a; hek293) | IC50 ([1]; read-out: IC50) [µM] | Ki ([1]; read-out: Ki) [µM]
Oc1ccccc1 [PHENOL] | Not Active | Not Active | Not Active | Not Active | Not Active | Not Active | Not Active | Not Active |  |  |  |  |  |  |  |  |  |  |  | 
CC(C)NCC(O)COc1ccc(CC(N)=O)cc1 (stereo unspecified) [ATENOLOL] | Not Active | Not Active | Not Active | Not Active | Not Active | Not Active | Not Active | Not Active |  |  |  |  |  |  |  |  |  |  |  | 
CNC[C@H](O)c1ccc(O)c(O)c1 [EPINEPHRINE] | Not Active | Not Active | Not Active | Not Active | Not Active | Not Active | Not Active | Not Active |  |  |  |  |  |  |  |  |  |  |  | 
CN(Cc1cc(Br)cc(Br)c1N)C1CCCCC1 [BROMHEXINE] | Not Active | Not Active | Not Active | Not Active | Not Active | Not Active | Not Active | Not Active |  |  |  |  |  |  |  |  |  |  |  | 
CC(C)Cc1ccc([C@H](C)C(=O)O)cc1 [DEXIBUPROFEN] | Not Active | Not Active | Not Active | Not Active | Not Active | Not Active | Not Active | Not Active |  |  |  |  |  |  |  |  |  |  |  | 
CC(C)Cn1cnc2c(N)nc3ccccc3c21 [IMIQUIMOD] | Not Active | Not Active | Not Active | Not Active | Not Active | Not Active | Not Active |  | 5.32 | 2.99 |  |  |  |  |  |  |  |  |  | 
CC(C)(C#N)c1cc(Cn2cncn2)cc(C(C)(C)C#N)c1 [ANASTROZOLE] | Not Active | Not Active | Not Active | Not Active | Not Active | Not Active | Not Active | Not Active |  |  |  |  |  |  |  |  |  |  |  | 
POVIDONE | Not Active | Not Active | Not Active | Not Active | Not Active | Not Active | Not Active | Not Active |  |  | Not Active | Not Active | Not Active | Not Active | Not Active | Not Active | Not Active | Not Active |  | 
COc1ccccc1OCCNCC(O)COc1cccc2[nH]c3ccccc3c12 (stereo unspecified) [CARVEDILOL] |  | Not Active | Not Active | Not Active | Not Active | Not Active | Not Active | Not Active |  |  |  |  |  |  |  |  |  |  | 1.52 | 0.705
Nc1ccc(Cc2ccc(N)cc2)cc1 | Not Active | Not Active | Not Active | Not Active | Not Active | Not Active | Not Active | Not Active |  |  |  |  |  |  |  |  |  |  |  | 
CARBOXYMETHYLCELLULOSE | Not Active | Not Active | Not Active | Not Active | Not Active | Not Active | Not Active | Not Active |  |  | Not Active | Not Active | Not Active | Not Active | Not Active | Not Active | Not Active | Not Active |  | 

— ChEMBL document CHEMBL1909046, “DrugMatrix in vitro pharmacology data”
